The source of these data is US7094869B2, “Low molecular weight peptidomimetic growth hormone secretagogues” (Genentech, Inc., priority 1994, dated 2006).

Structures are written as SMILES. Like-named read-outs stand apart in the source and are kept apart here. Non-standard residues stand in square brackets, D forms with d. Residues, ends and D or L forms follow the SMILES beside them. ξ: configuration not given here. dNMe2Nal = CN[C@H](Cc1ccc2ccccc2c1)C(=O)O; dPhe(4-Cl) = N[C@H](Cc1ccc(Cl)cc1)C(=O)O; 1Nal = N[C@@H](Cc1cccc2ccccc12)C(=O)O; 2Nal = N[C@@H](Cc1ccc2ccccc2c1)C(=O)O; d2Nal = N[C@H](Cc1ccc2ccccc2c1)C(=O)O; d(hPhe) = N[C@H](CCc1ccccc1)C(=O)O; ξ2Nal = NC(Cc1ccc2ccccc2c1)C(=O)O; Inp = O=C(O)C1CCNCC1; ξK = NCCCCC(N)C(=O)O; Ava = NCCCCC(=O)O

Assay [1] relates to growth hormone secretion. Put plainly: GHRP induced growth hormone secretion, intravenous administration (Rat IV). Particulars: serum GH 10 min after injection; for RAT IV ED50: iv injection. The format is in vivo. Here is the method:
Immature weanling female Sprague Dawley rats were purchased from Charles River Labs (Portage, […].) and group housed with water and food available ad libitum. When the rats were 24-30 days old (weighing 50-90 g) they were anesthetized with pentobarbitone (4 mg in 0.5 ml, approximately 60 mg/kg) given by intraperitoneal injection. The rats were then placed briefly on a heated pad, to distend their tail veins, and given an intravenous tail vein injection of the peptides 20 minutes after receiving the anesthetic. The intravenous injection was of 0.1 ml using a 1 ml syringe. The injections contained graded doses of peptides or the vehicle (vehicle for all peptides given intravenously was a buffer of 20 mM sodium acetate, 45 g/l mannitol, pH 5.0). Ten minutes after the intravenous injection blood was taken by cardiac puncture, using a 3 ml syringe, and the rats were then sacrificed.
The blood was then clotted on ice, centrifuged, serum decanted and frozen for subsequent analysis using the rat GH ELISA described elsewhere in the application. For the rat GH ELISA the serum was diluted 1:50 or 1:250, depending on the expected serum GH concentrations achieved, and assayed in duplicate.

Assay [2] addresses rat pituitary cells (Rattus norvegicus, UniProt O08725). To be noted: GH release, 15 min incubation. In outline: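 Primary rat anterior pituitary cells, cultured three days in DME low glucose/10% FBS, were washed, pre-incubated twice for 15 min, then challenged 15 min with test compounds (DMSO ≤0.1%) at 37 °C. Released GH was measured by two-site ELISA; EC50 came from 4-parameter fits, mean of three to four independent determinations.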

The mark [3] stands for this setting: read-out: PIT Cell EC50, Table IV, formula III compounds.
Where [4] appears, read: read-out: PIT Cell EC50, Table III, formula IV compounds.
[5] abbreviates: read-out: PIT Cell EC50, Table V, formula II compounds.

Chain of rat pituitary cells (O08725 whole entry): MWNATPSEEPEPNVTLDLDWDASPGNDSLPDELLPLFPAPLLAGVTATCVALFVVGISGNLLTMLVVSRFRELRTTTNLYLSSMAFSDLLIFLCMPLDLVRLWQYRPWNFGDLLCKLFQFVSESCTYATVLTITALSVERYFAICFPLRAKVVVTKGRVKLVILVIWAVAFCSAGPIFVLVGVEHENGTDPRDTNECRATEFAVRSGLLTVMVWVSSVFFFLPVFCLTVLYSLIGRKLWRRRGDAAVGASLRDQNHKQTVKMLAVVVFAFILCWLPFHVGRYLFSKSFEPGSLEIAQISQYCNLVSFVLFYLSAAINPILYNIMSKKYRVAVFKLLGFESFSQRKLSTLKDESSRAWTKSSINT

As to `NC(=O)[C@H](Cc1cccc2ccccc12)NC(=O)[C@@H](Cc1ccc2ccccc2c1)NC(=O)[C@@H](Cc1ccc2ccccc2c1)NC(=O)C1CCNCC1` [(inip) b b npA amide] (H-[Inp][d2Nal][d2Nal][1Nal]-NH2), in assay [1] (Table IV), the “RAT IV ED50” value was 5 µg. The EC50 in assay [2] (setting [3]) was found to be 0.2 nM.
On to `CN(C(=O)[C@@H](Cc1ccc2ccccc2c1)NC(=O)CCCCN)[C@H](Cc1ccc2ccccc2c1)C(=O)N[C@@H](Cc1ccccc1)C(=O)N[C@@H](CCCCN)C(N)=O` [(Ava) b nmb F K amide] (H-[Ava][d2Nal][dNMe2Nal]FK-NH2), for which the “RAT IV ED50” value in assay [1] (Table III) turned out to be 100 µg. Also, in assay [2] (setting [4]), the EC50 was found to be 3.8 nM.
The like results for `NCCCC[C@H](NC(=O)[C@H](Cc1ccccc1)NC(=O)[C@@H](Cc1ccc2ccccc2c1)NC(=O)[C@@H](Cc1ccc2ccccc2c1)NC(=O)C1CCNCC1)C(=O)N[C@@H](Cc1ccc(O)cc1)C(N)=O` [(inip) b b F K Y amide] (H-[Inp][d2Nal][d2Nal]FKY-NH2) were, in that order, 1 µg and 0.43 nM.
For the molecule `N[C@H]1CC[C@H](NC(=O)[C@@H](Cc2ccc3ccccc3c2)NC(=O)[C@@H](Cc2ccc3ccccc3c2)NC(=O)C2CCNCC2)CC1` [(inip) b b cxa], in assay [1] (Table IV), the “RAT IV ED50” value was 10 µg. Also, in assay [2] (setting [3]), the EC50 was 14 nM.
The like results for `COC(=O)[C@H](Cc1ccccc1)NC(=O)[C@@H](Cc1ccc2ccccc2c1)NC(=O)[C@@H](Cc1ccc2ccccc2c1)NC(=O)C1CCNCC1` [(inip) b b F Me ester] (H-[Inp][d2Nal][d2Nal]F-OMe) were, in that order, 2 µg and 2.8 nM.
With `COC(=O)[C@H](Cc1ccccc1)NC(=O)[C@@H](Cc1ccc2ccccc2c1)NC(=O)[C@@H](Cc1ccc2ccccc2c1)N(C)C(=O)C1CCNCC1` [(inip) nmb b F Me ester] (H-[Inp][dNMe2Nal][d2Nal]F-OMe), the “RAT IV ED50” value in assay [1] (Table IV) came out at 10 µg. Moreover, the EC50 in assay [2] (setting [3]) is 1.4 nM.
Consider `NC(=O)[C@H](Cc1ccccc1)NC(=O)[C@@H](Cc1ccc2ccccc2c1)NC(=O)[C@@H](Cc1ccc(Cl)cc1)NC(=O)C1CCNCC1` [(inip) chf b F amide] (H-[Inp][dPhe(4-Cl)][d2Nal]F-NH2), for which the “RAT IV ED50” value in assay [1] (Table IV) was found to be 10 µg. In addition, in assay [2] (setting [3]), the EC50 is 2.2 nM.
On to `NC(=O)[C@H](Cc1ccc2ccccc2c1)NC(=O)[C@@H](Cc1ccc2ccccc2c1)NC(=O)[C@@H](Cc1ccc2ccccc2c1)NC(=O)C1CCNCC1` [(inip) b b B amide] (H-[Inp][d2Nal][d2Nal][2Nal]-NH2), for which the “RAT IV ED50” value in assay [1] (Table IV) turned out to be 50 µg. For the same molecule, in assay [2] (setting [3]), the concentration for a half-maximal effect (EC50) was determined as 0.1 nM.
Consider `NCCCCC(NC(=O)[C@H](Cc1cccc2ccccc12)NC(=O)[C@@H](Cc1ccc2ccccc2c1)NC(=O)C(Cc1ccc2ccccc2c1)NC(=O)C1CCNCC1)C(N)=O` (stereo partly drawn) [(inip) b b npA K amide, (inip)-DβNal-DβNal-αNal-Lys-amide] (H-[Inp][ξ2Nal][d2Nal][1Nal][ξK]-NH2), for which, in assay [1] (Table III), the “RAT IV ED50” value amounted to 1 µg. The EC50 in assay [2] (setting [4]) stood at 0.1 nM.
On to `NC(=O)[C@H](Cc1ccccc1)NC(=O)[C@@H](Cc1c[nH]c2ccccc12)NC(=O)[C@@H](Cc1ccc2ccccc2c1)NC(=O)C1CCNCC1` [(inip) b w F amide, (inip)-DβNal-(D-Trp)-Phe-amide] (H-[Inp][d2Nal][dW]F-NH2), for which the “RAT IV ED50” value in assay [1] (Table IV) was 0.67 µg. The EC50 in assay [2] (setting [3]) was found to be 0.1 nM.
For `NCCCCC(=O)N[C@H](Cc1ccc2ccccc2c1)C(=O)N[C@H](Cc1ccc2ccccc2c1)C(=O)N[C@@H](Cc1ccccc1)C(N)=O` [(Ava) b b F amide] (H-[Ava][d2Nal][d2Nal]F-NH2), in that order: 100 µg and 17.1 nM.
`O=C(N[C@H](Cc1ccc2ccccc2c1)C(=O)NCCc1ccc2ccccc2c1)C1CCNCC1` [(inip) b npe, (inip)-DβNal-[N-1-{2-(2-naphthyl)ethyl}] amide]: the “RAT IV ED50” value in assay [1] (Table V) was 500 µg. For the same molecule, the EC50 in assay [2] (setting [5]) turned out to be 11 nM.
The like results for `CN(C(=O)[C@@H](Cc1ccc2ccccc2c1)NC(=O)C1CCNCC1)[C@@H](CO)Cc1ccc2ccccc2c1` [(inip) b nbol, (inip)-DβNal-(N-Methyl-D-β-naphthylalanol)] were, in that order, 20 µg and 3 nM.
Regarding `O=C(N[C@H](Cc1ccc2ccccc2c1)C(=O)N[C@H](Cc1ccc2ccccc2c1)C(=O)N[C@@H](Cc1ccc(O)cc1)C(=O)O)C1CCNCC1` [(inip) b b Y acid] (H-[Inp][d2Nal][d2Nal]Y-OH), the “RAT IV ED50” value in assay [1] (Table IV) came to 10 µg. Further, the EC50 in assay [2] (setting [3]) turned out to be 5 nM.
On to `NCCCCC(=O)N[C@H](Cc1ccc2ccccc2c1)C(=O)N[C@H](Cc1ccc2ccccc2c1)C(=O)N[C@@H](Cc1ccccc1)C(=O)N[C@H](CC(N)=O)C(N)=O` [(Ava) b b F n amide] (H-[Ava][d2Nal][d2Nal]F[dN]-NH2), for which the “RAT IV ED50” value in assay [1] (Table III) was determined as 12.5 µg. In addition, in assay [2] (setting [4]), the EC50 is 10 nM.
As to `NCCCNC(=O)[C@@H](Cc1ccc2ccccc2c1)NC(=O)[C@@H](Cc1ccc2ccccc2c1)NC(=O)C1CCNCC1` [(inip) b b ram], the “RAT IV ED50” value in assay [1] (Table IV) was 5 µg. In assay [2] (setting [3]), the EC50 was determined as 16 nM.
Turning to `NCCCC[C@H](NC(=O)[C@H](Cc1ccccc1)NC(=O)[C@@H](Cc1c[nH]c2ccccc12)NC(=O)[C@@H](Cc1c[nH]c2ccccc12)NC(=O)CN)C(N)=O` [G w w F K amide] (H-G[dW][dW]FK-NH2), in assay [1] (Table III), the “RAT IV ED50” value was found to be 2.5 µg. For the same molecule, the EC50 in assay [2] (setting [4]) is 2.1 nM.
Consider `CC(=O)N[C@H](Cc1ccc2ccccc2c1)C(=O)N[C@@H](Cc1ccc2ccccc2c1)C(=O)N[C@@H](Cc1ccc2ccccc2c1)C(=O)NCCCN` [Ac b B B ram, Acetyl-DβNal-βNal-βNal-[N-(3-aminopropyl)] amide], for which the “RAT IV ED50” value in assay [1] (Table VI) came to 100 µg. Besides, in assay [2] (read-out: PIT Cell EC50, Table VI, retroinverso compounds of formula V), the 50% effective concentration (EC50) turned out to be 4.8 nM.
As to `NC(=O)[C@H](Cc1ccccc1)NC(=O)[C@@H](CCc1ccccc1)NC(=O)[C@@H](Cc1ccc2ccccc2c1)NC(=O)C1CCNCC1` [(inip) b hf F amide] (H-[Inp][d2Nal][d(hPhe)]F-NH2), the “RAT IV ED50” value in assay [1] (Table IV) was found to be 10 µg. Further, the EC50 in assay [2] (setting [3]) came out at 14 nM.
In the case of `C[C@H](NC(=O)[C@@H](Cc1ccc2ccccc2c1)NC(=O)CCCCN)C(=O)N[C@@H](Cc1c[nH]c2ccccc12)C(=O)N[C@H](Cc1ccccc1)C(=O)N[C@@H](CCCCN)C(N)=O` [(Ava) b A W f K amide, reference compound] (H-[Ava][d2Nal]AW[dF]K-NH2), the “Rat IV ED50” value in assay [1] (Table II, iv tail vein injection, anesthetized weanling female rats) is 1.5 µg. Further, in assay [2] (read-out: “Pit” Cell EC50, Table II, prior art compounds), the EC50 was 0.2 nM.
Take `NCCCC[C@H](NC(=O)[C@H](Cc1ccccc1)NC(=O)[C@@H](Cc1ccc2ccccc2c1)NC(=O)[C@@H](Cc1ccc2ccccc2c1)NC(=O)[C@@H](N)Cc1c[nH]cn1)C(N)=O` [H b b F K amide] (H-H[d2Nal][d2Nal]FK-NH2): the “RAT IV ED50” value in assay [1] (Table III) came out at 15.4 µg. Further, in assay [2] (setting [4]), the 50% effective concentration (EC50) is 2.4 nM.
Turning to `NC(=O)[C@@H]1CCCN1C(=O)[C@@H](Cc1ccc2ccccc2c1)NC(=O)[C@@H](Cc1ccc2ccccc2c1)NC(=O)C1CCNCC1` [(inip) b b P amide] (H-[Inp][d2Nal][d2Nal]P-NH2), the “RAT IV ED50” value in assay [1] (Table IV) was 5 µg. For the same molecule, the EC50 in assay [2] (setting [3]) was found to be 9 nM.
`NCCCCC(=O)N[C@H](Cc1c[nH]c2ccccc12)C(=O)N[C@H](Cc1c[nH]c2ccccc12)C(=O)N[C@@H](Cc1ccccc1)C(=O)N[C@@H](CCCCN)C(N)=O` [(Ava) w w F K amide] (H-[Ava][dW][dW]FK-NH2): the “RAT IV ED50” value in assay [1] (Table III) was determined as 5 µg. Also, in assay [2] (setting [4]), the half-maximal effective concentration (EC50) was 13 nM.
Take `COC(=O)[C@@H](Cc1ccc2ccccc2c1)NC(=O)[C@@H](Cc1ccc2ccccc2c1)NC(=O)C1CCNCC1` [(imp) b b Me ester] (H-[Inp]-[d2Nal]-[d2Nal]-OMe): the “RAT IV ED50” value in assay [1] (Table V) was determined as 100 µg. In addition, the EC50 in assay [2] (setting [5]) was 5 nM.
`O=C(N[C@H](Cc1ccc2ccccc2c1)C(=O)NCc1ccc2ccccc2c1)C1CCNCC1` [(inip) b man, (inip)-DβNal-(2-aminomethylnaphthyl) amide]: the “RAT IV ED50” value in assay [1] (Table V) was determined as 500 µg. Besides, the concentration giving a half-maximal response (EC50) in assay [2] (setting [5]) stood at 9 nM.
`NCCCCC(=O)N[C@H](Cc1ccc2ccccc2c1)C(=O)N[C@H](Cc1ccc2ccccc2c1)C(=O)N[C@@H](Cc1ccccc1)C(=O)NCC(N)=O` [(Ava) b b F G amide] (H-[Ava][d2Nal][d2Nal]FG-NH2): the “RAT IV ED50” value in assay [1] (Table III) is 50 µg. Further, the concentration for a half-maximal effect (EC50) in assay [2] (setting [4]) came to 7.2 nM.
As to `CN(CCc1ccc2ccccc2c1)C(=O)[C@@H](Cc1ccc2ccccc2c1)NC(=O)C1CCNCC1` [(inip) b men, (inip)-DβNal-[N-methyl, N-1-{2-(2-naphthyl)ethyl}] amide], the “RAT IV ED50” value in assay [1] (Table V) stood at 500 µg. Further, the EC50 in assay [2] (setting [5]) came out at 12 nM.
In the case of `NCCCCN(CCc1ccccc1)C(=O)[C@@H](Cc1ccc2ccccc2c1)NC(=O)[C@@H](Cc1ccc2ccccc2c1)NC(=O)C1CCNCC1` [(inip) b b fbd, (inip)-DβNal-DβNal-[N-(2-phenylethyl), N-(4-aminobutyl)] amide], the “RAT IV ED50” value in assay [1] (Table IV) was determined as 0.67 µg. Further, the EC50 in assay [2] (setting [3]) was 0.9 nM.
